Test results as given in patent US6737383B1, “Herbicidal oxadiazolidines” (priority 1999, dated 2004).

Columns and labels:
corn = assay: Test B pre/postemergence corn; assay type: in vivo, Zea mays
How it was run: (§1)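 Herbicidal effect was estimated by eye on a ten-point control scale after plants spent twelve to sixteen days in a greenhouse following soil or foliar treatment. Foliar sprays targeted plants at one to four leaves; all doses were formulated in a non-phytotoxic solvent with surfactant.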

morningglory = assay: Test B pre/postemergence morningglory; assay type: in vivo, Ipomoea hederacea
How it was run: as §1

bedstraw = assay: Test B pre/postemergence bedstraw; assay type: in vivo, Galium aparine
How it was run: as §1

rape = assay: Test B pre/postemergence rape; assay type: in vivo, Brassica napus
How it was run: as §1

surinam grass = assay: Test B pre/postemergence surinam grass; assay type: in vivo, Brachiaria decumbens
How it was run: as §1

rice = assay: Test B flood test rice; assay type: in vivo, Oryza sativa
How it was run: (§2)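 Read-out is a visual response score from 0 (no effect) to 10 (complete control), assigned by comparison with untreated controls. Treatment was applied at the 2-leaf stage, and plants stayed in the greenhouse for twelve to sixteen days before scoring.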

smallflower flatsedge = assay: Test B flood test smallflower flatsedge; assay type: in vivo, Cyperus difformis
How it was run: as §2

giant foxtail = assay: Test B pre/postemergence giant foxtail; assay type: in vivo, Setaria faberii
How it was run: as §1

bamyardgrass = assay: Test B flood test barnyardgrass; assay type: in vivo, Echinochloa crus-galli
How it was run: as §2

sugar beet = assay: Test B pre/postemergence sugar beet; assay type: in vivo, Beta vulgaris
How it was run: as §1

blackgrass = assay: Test B pre/postemergence blackgrass; assay type: in vivo, Alopecurus myosuroides
How it was run: as §1

wild oat = assay: Test B pre/postemergence wild oat; assay type: in vivo, Avena fatua
How it was run: as §1

pigweed = assay: Test B pre/postemergence pigweed; assay type: in vivo, Amaranthus retroflexus
How it was run: as §1

crabgrass = assay: Test B pre/postemergence crabgrass; assay type: in vivo, Digitaria sanguinalis
How it was run: as §1

cocklebur = assay: Test B pre/postemergence cocklebur; assay type: in vivo, Xanthium strumarium
How it was run: as §1

velvetleaf = assay: Test B pre/postemergence velvetleaf; assay type: in vivo, Abutilon theophrasti
How it was run: as §1

[1] = Postemergence, Rate 62 g/ha, scale 0 to 10, 0 is no effect, 10 is complete control
[2] = Postemergence, Rate 250 g/ha, scale 0 to 10, 0 no effect, 10 complete control
[3] = Preemergence, Rate 62 g/ha, scale 0 to 10 (0 no effect, 10 complete control)
[4] = Preemergence, Rate 125 g/ha, scale 0 to 10 (0 no effect, 10 complete control)
[5] = Preemergence, Rate 250 g/ha, scale of 0 to 10 where 0 is no effect and 10 is complete control
[6] = Preemergence, Rate 500 g/ha, scale 0 (no effect) to 10 (complete control)
[7] = Rate 125 g/ha, Postemergence, scale 0 to 10, 0 no effect, 10 complete control
[8] = Rate 500 g/ha, Postemergence, scale 0 to 10, 0 no effect, 10 complete control
[9] = Rate 125 g/ha, Postemergence section (flood test species), scale 0 to 10, 0 no effect, 10 complete control
[10] = Rate 500 g/ha, listed under Postemergence (flood test species), scale 0 to 10, 0 no effect, 10 complete control
[11] = flood test, listed under Postemergence, Rate 250 g/ha, scale 0 to 10, 0 no effect, 10 complete control

Cc1cccc(C(C)C)c1-n1c(=O)on(C(=O)N(c2ccccc2)C(C)C)c1=O [Compound 66]
0: Corn plant response rating (corn; [1]) | Corn plant response rating (corn; [2]) | Corn plant response rating (corn; [3]) | Plant response rating, Corn (corn; [4]) | Plant response rating, Corn (corn; [5]) | Corn plant response rating (corn; [6]) | Corn plant response rating (corn; [7]) | Morningglory plant response rating (morningglory; [1]) | Morningglory plant response rating (morningglory; [3]) | Plant response rating, Morningglory (morningglory; [4]) | Plant response rating, Morningglory (morningglory; [5]) | Morningglory plant response rating (morningglory; [6]) | Bedstraw plant response rating (bedstraw; [1]) | Bedstraw plant response rating (bedstraw; [2]) | Bedstraw plant response rating (bedstraw; [3]) | Plant response rating, Bedstraw (bedstraw; [4]) | Plant response rating, Bedstraw (bedstraw; [5]) | Bedstraw plant response rating (bedstraw; [6]) | Bedstraw plant response rating (bedstraw; [7]) | Rape plant response rating (rape; [1]) | Rape plant response rating (rape; [2]) | Rape plant response rating (rape; [3]) | Plant response rating, Rape (rape; [4]) | Plant response rating, Rape (rape; [5]) | Rape plant response rating (rape; [6]) | Rape plant response rating (rape; [7]) | Rape plant response rating (rape; [8]) | B. signalgrass plant response rating (surinam grass; [1]) | B. signalgrass plant response rating (surinam grass; [2]) | B. signalgrass plant response rating (surinam grass; [3]) | Plant response rating, B. signalgrass (surinam grass; [4]) | Plant response rating, B. signalgrass (surinam grass; [5]) | B. signalgrass plant response rating (surinam grass; [6]) | B. signalgrass plant response rating (surinam grass; [7]) | B. signalgrass plant response rating (surinam grass; Rate 500 g/ha, Postemergence, scale of 0 to 10 where 0 is no effect and 10 is complete control) | Rice plant response rating (rice; [1]) | Rice plant response rating (rice; [9]) | Rice plant response rating (rice; [10]) | Rice plant response rating (rice; [11]) | S. Flatsedge plant response rating (smallflower flatsedge; [1]) | S. Flatsedge plant response rating (smallflower flatsedge; [9]) | Giant foxtail plant response rating (giant foxtail; [1]) | Giant foxtail plant response rating (giant foxtail; [2]) | Giant foxtail plant response rating (giant foxtail; [7]) | Giant foxtail plant response rating (giant foxtail; [8]) | Barnyardgrass plant response rating (bamyardgrass; [1]) | Barnyardgrass plant response rating (bamyardgrass; [9]) | Barnyardgrass plant response rating (bamyardgrass; [11]) | Sugarbeets plant response rating (sugar beet; [1]) | Sugarbeets plant response rating (sugar beet; [2]) | Sugarbeets plant response rating (sugar beet; [3]) | Plant response rating, Sugarbeets (sugar beet; [4]) | Plant response rating, Sugarbeets (sugar beet; [5]) | Sugarbeets plant response rating (sugar beet; [6]) | Sugarbeets plant response rating (sugar beet; [7]) | Sugarbeets plant response rating (sugar beet; [8]) | Blackgrass plant response rating (blackgrass; [1]) | Blackgrass plant response rating (blackgrass; [3]) | Plant response rating, Blackgrass (blackgrass; [4]) | Plant response rating, Blackgrass (blackgrass; [5]) | Blackgrass plant response rating (blackgrass; [6]) | Blackgrass plant response rating (blackgrass; [7]) | Wild oats plant response rating (wild oat; [1]) | Wild oats plant response rating (wild oat; [2]) | Wild oats plant response rating (wild oat; [3]) | Plant response rating, Wild oats (wild oat; [4]) | Plant response rating, Wild oats (wild oat; [5]) | Wild oats plant response rating (wild oat; [7]) | Wild oats plant response rating (wild oat; [8]) | Redroot pigweed plant response rating (pigweed; [1]) | Redroot pigweed plant response rating (pigweed; [2]) | Redroot pigweed plant response rating (pigweed; [3]) | Plant response rating, Redroot pigweed (pigweed; [4]) | Plant response rating, Redroot pigweed (pigweed; [5]) | Redroot pigweed plant response rating (pigweed; [6]) | Redroot pigweed plant response rating (pigweed; [7]) | Crabgrass plant response rating (crabgrass; [1]) | Crabgrass plant response rating (crabgrass; [2]) | Crabgrass plant response rating (crabgrass; [3]) | Crabgrass plant response rating (crabgrass; [7]) | Crabgrass plant response rating (crabgrass; [8]) | Cocklebur plant response rating (cocklebur; [1]) | Cocklebur plant response rating (cocklebur; [2]) | Cocklebur plant response rating (cocklebur; [3]) | Plant response rating, Cocklebur (cocklebur; [4]) | Plant response rating, Cocklebur (cocklebur; [5]) | Cocklebur plant response rating (cocklebur; [6]) | Cocklebur plant response rating (cocklebur; [7]) | Cocklebur plant response rating (cocklebur; [8]) | Velvetleaf plant response rating (velvetleaf; [1]) | Velvetleaf plant response rating (velvetleaf; [2]) | Velvetleaf plant response rating (velvetleaf; [3]) | Plant response rating, Velvetleaf (velvetleaf; [4]) | Plant response rating, Velvetleaf (velvetleaf; [5]) | Velvetleaf plant response rating (velvetleaf; [6]) | Velvetleaf plant response rating (velvetleaf; [7])
8: Crabgrass plant response rating (crabgrass; [6])
2: Corn plant response rating (corn; [8]) | Morningglory plant response rating (morningglory; [8]) | Bedstraw plant response rating (bedstraw; [8]) | S. Flatsedge plant response rating (smallflower flatsedge; [11]) | Blackgrass plant response rating (blackgrass; [2]) | Wild oats plant response rating (wild oat; [6]) | Plant response rating, Crabgrass (crabgrass; [4]) | Velvetleaf plant response rating (velvetleaf; [8])
3: S. Flatsedge plant response rating (smallflower flatsedge; [10]) | Barnyardgrass plant response rating (bamyardgrass; [10]) | Blackgrass plant response rating (blackgrass; [8])
6: Plant response rating, Giant foxtail (giant foxtail; [5])
4: Giant foxtail plant response rating (giant foxtail; [3]) | Plant response rating, Giant foxtail (giant foxtail; [4]) | Redroot pigweed plant response rating (pigweed; [8]) | Plant response rating, Crabgrass (crabgrass; [5])
9: Giant foxtail plant response rating (giant foxtail; [6])
1: Morningglory plant response rating (morningglory; [2]) | Morningglory plant response rating (morningglory; [7])
